Data set [1] has as its system U118MG glioma subcutaneous tumor. The data set can be described thus: In vivo distribution in U118MG cell subcutaneous tumor model mice (Experimental Example 4). The arrangement: species or system NOD-SCID mice. To be noted: mouse, in vivo. As to the method:
U118MG human glioma cells in the logarithmic growth phase were selected and digested (0.25% pancreatic enzyme).
The mice were further fed for 20 days after injection.
The mice inoculated with U118MG above were randomly divided into 3 groups (4 mice per group). For the 4 mice per group, the administration volume was calculated according to 10 μL/g body weight, and AP1, AP2 and comparative AP11 were respectively administered to different groups of mice by tail vein injection and designated as test group 4A1, test group 4A2 and control group 4A3. Thus, the administration dosage of each mouse was 3 mg/kg (based on aptamer). Another mouse inoculated with U118MG above was administered with 1×DMEM medium by tail vein injection (the administration volume was 10 μL/g body weight), and designated as blank control group 4Y.

For data set [2], the system named is U118-MG neuroglioma cells. Put plainly: CCK8 cell viability, U118-MG neuroglioma cells (Experimental Example 12). It is filed as cell-based, human. To be noted: 72 h; AP1 50-800 nM, conjugate 19 25-800 nM; CCK8, OD450. The procedure:
U118MG neuroglioma cells were purchased from Jennio; SVGp12 human astrocytes were purchased from the Shanghai Cell Bank of Chinese Academy of Sciences; CCK8 kit was purchased from DOJINDO Laboratories.
U118MG cells and SVGp12 cells in the logarithmic growth phase were selected and seeded into a 96-well plate of a CCK8 kit at 5000 cells/well, cultured at 37° C. with 5% CO2 for 24 h. U118-MG cells and SVGp12 cells to be detected were obtained when the cell confluence was observed as 80% under microscope. […]
AP1 solution 1, AP1 solution 2, AP1 solution 3, and AP1 solution 4 were respectively added into U118-MG cells to be detected, and incubated at 37° C. for 72 h in the dark. […]
Conjugate 19 solution 1, Conjugate 19 solution 2, Conjugate 19 solution 3, Conjugate 19 solution 4, Conjugate 19 solution 5, Conjugate 19 solution 6, and Conjugate 19 solution 7 were respectively added into U118-MG cells to be detected, and incubated at 37° C. for 72 h in the dark. […]
CC8 kit was used to detect UV absorbance of test groups and control groups above at the detection wavelength of 450 nm in UV absorption spectrum according to the instructions, and the average value of the repeated experiments was taken for each group. Cell viability was calculated according to the following equation: […]

Data set [3] relates to A549 human non-small cell lung cancer cells. The data set can be described thus: High content imaging: entry of conjugates into A549 cells. It is filed as cell-based. To be noted: 100 nM, 30 min 37°C. The procedure: In this experiment, the entry of conjugate AP1 provided by the present disclosure and comparative conjugate comparative AP10 into different cells was observed by a PerkinElmer High Content Imaging system (Operatta).
U118MG glioma cells, SVGp12 normal astrocytes, T98G human brain glioma cells, U251 human glioma cells, A549 human non-small cell lung cancer cells, MCF-7 human breast cancer cells, and 293T human kidney epithelial cells were all purchased from the Shanghai Cell Bank of Chinese Academy of Sciences. […] The supernatant was aspirated and DPBS buffer (purchased from Thermo Fisher) was added to wash the plate 2 times (100 μL each time).
Conjugate AP1 prepared above and yeast tRNA were respectively formulated into conjugate solution 2A with DMEM medium, and the conjugate solution 2A comprised yeast tRNA at a final concentration of 100 μg/mL and conjugate AP1 at a final concentration of 100 nM. […]
Normalization was performed according to the mean fluorescence intensity of control group 2Y, that is, subtracting the mean fluorescence intensity of control group 2Y from the fluorescence intensity of test group 2X before performing imaging.

The test system of data set [4] is U118MG glioma tumor spheres. The data set can be described thus: High content imaging: entry into U118MG tumor spheres. The following applies: 100 nM, imaging without washing. Type of data set: cell-based, human. As to the method: (§1) In this experiment, the entry of conjugate AP1 provided by the present disclosure and comparative conjugate comparative AP10 into U118MG glioma tumor spheres and A549 human non-small cell lung cancer tumor spheres was observed by a PerkinElmer High Content Imaging system (Operatta).
(§2) 80 μL fresh, sterilized and unsolidified 2% agarose was added into the culture wells of a 96-well plate. […] Half of the supernatant was aspirated every 48 h and fresh DMEM medium was added along the wall of the culture wells. After 7 days of culture, the cells were observed under the microscope to confirm that complete cell spheres were obtained, indicating successful tumor sphere cultivation.
(§3) Each culture well was added with AP1 or comparative AP10 according to the method of experimental Example 2, and imaged in a high content imaging system, with the only difference of directly performing imaging after culture without washing and performing imaging according to the measured fluorescence intensity of Cy5.

In data set [5] the test system is A549 human non-small cell lung cancer tumor spheres. Put plainly: High content imaging: entry into A549 tumor spheres. The following applies: 100 nM, imaging without washing. Type of data set: cell-based. As to the method:
as §1, §2, §3

This is an account of results in patent US20250325675A1, “APTAMER, CONJUGATE, COMPOSITION, METHOD FOR PREPARING SAME, AND USE THEREOF” (priority 2022, published 2025).

{Cy5} = cyanine 5 fluorescent dye

Regarding “CY5-CfUfGGAGUfUfCfAGACfGUfGUfUfGCfUfCfUfUfCfCfGAUfCfUfCf (CUGGAGUUCAGACGUGUUGCUCUUCCGAUCUC; 2'-fluoro at CU, RNA at AG, 5' {Cy5}, backbone not given here) [AP1]”, the “fluorescence signal in mice / at site of tumor inoculation” value in data set [1] is “strong fluorescence signal at the sites of tumor inoculation”. In data set [2], the “cell viability of tumor cells” value is recorded as “no effect on cell viability”. For the same substance, the “Cy5 fluorescence signal in cells” value in data set [3] is listed as “strong Cy5 fluorescence signal”. The “Cy5 fluorescence signal in tumor spheres” value in data set [4] and in data set [5] was “strong Cy5 fluorescence signal” each time.
